Assay results reported in patent US7772272B2, “Method for enhancing glucose uptake into warm-blooded animal adipocytes” (Daiichi Sankyo Company, Limited, priority 2003, dated 2010).

How the values were obtained:
[1] = test system: C57BL/6J mouse adipocytes; assay: Glucose uptake test using isolated adipocytes from pravastatin-dosed C57BL/6J mice; type: in vivo; settings: isolated adipocytes from pravastatin-dosed C57BL/6J mice (normal mice), insulin, 3H-2-deoxyglucose
Method: (§1) • (i) Epididymal adipose tissue was excised from a group administered with pravastatin for 1 week and a non-dosed group of C57BL/ksj-db/db mice (n=5). The excised adipose tissue was handled under conditions of 37° C. at all times. The adipose tissue was cut into small pieces with a scissors, followed by the addition of medium (DMEM, 1 mM sodium pyruvate, 25 mM HEPES pH 7.4, 0.1% BSA, 100 u/ml penicillin, 0.1 mg/ml streptomycin) containing 1 mg/ml of collagenase I (Worshington), and shaking at 37° C. and 80 rpm. Following the reaction, 2.5 volumes of the aforementioned medium were added, the adipocytes were screened out by passing the cell suspension through a 260 μm mesh sieve, and again passed through a 100 μm mesh sieve to prepare an adipocyte suspension.
(§2) An adipocyte suspension was prepared for C57BL/6J mice (normal mice) in the same manner as described above. • (ii) The glucose uptake test was carried out in the manner as described below. […] After cutting out the oil layer of the upper layer containing adipocytes with a knife, it was transferred to a glass vial containing 4 ml of Hionic Fluor (Perkin-Elmer) liquid scintillation counter cocktail followed by measurement of specific radioactivity. The amount of measured radioactivity of the ^3H-2-deoxyglucose was used as an indicator of the amount of glucose taken up by the cells. […]

C57BL/ksj-db/db mice [2] = assay: Insulin tolerance test using pravastatin-dosed mice; type: in vivo, mouse; settings: pravastatin in feed for 2 weeks, 60 minutes after insulin 1 u/kg i.p., non-dose group 411 mg/dl
Method: (§3) A group administered with pravastatin by mixing in feed for 2 weeks and a non-dosed group of C57BL/ksj-db/db mice (n=5) were fasted for 2 hours. After measuring the body weight of each animal, insulin (Humalin, Lilly) was administered intraperitoneally at 1 u/kg, and blood samples were collected from the tail vein immediately before the start of administration and at 30, 60, 90 and 120 minutes after the start of administration followed by measurement of blood glucose levels.

C57BL/ksj-db/db mice [3] = assay: Glucose tolerance test using pravastatin-dosed mice; type: in vivo, mouse; settings: pravastatin in feed for 2 weeks, 60 minutes after administration (glucose 2 g/kg i.p.), non-dose group 517 mg/dl
Method: as §3, with “16 hours starting on the day before the start of the test.” for “2 hours.”, “glucose solution ([…])” for “insulin (Humalin, Lilly)”, “to 2 g/kg,” for “at 1 u/kg,”

KKAy mice = assay: Blood glucose levels after administration of pravastatin in feed, KKAy mice; type: in vivo, mouse; settings: pravastatin mixed in feed (0.03% and 0.06% wt/wt), dose group, non-dose group 521 mg/dl
Method: (§4) C57BL/ksj-db/db mice (male, age 5 weeks) and KKAy mice (female, age 4 weeks) were purchased from Clea Japan, and used in the test after acclimating to the test environment for 1 week. The mice were housed 5 animals to a cage and given unrestricted access to feed (F2, Funabashi Farm) and water.
(§5) The body weights of the animals were measured and blood samples were collected on the day the test started, and the animals were divided into two groups of 5 animals per cage based on their body weights and blood glucose levels. Blood samples were collected at the start of the test and days 4, 7 and 14 after the start of the test in the case of the C57BL/ksj-db/db mice, and at the start of the test and on days 4, 7, 14 and 28 after the start of the test in the case of the KKAy mice. Blood samples were collected from the tail vein in an amount equal to one heparinized capillary tube.
(§6) Pravastatin powder was added to the F2 powder to 0.03% and 0.06% (wt/wt), uniformly mixed and provided to the animals in individual cages. The amount of feed and general behaviour were checked at least once a day.
(§7) Blood glucose levels were measured on the days when blood samples were collected.

C57BL/ksj-db/db mice [4] = assay: Blood glucose levels after administration of pravastatin in feed, C57BL/ksj-db/db mice; type: in vivo, mouse; settings: pravastatin mixed in feed (0.03% and 0.06% wt/wt), dose group, non-dose group 633 mg/dl
Method: as §4, §5, §6, §7

[5] = test system: C57BL/ksj-db/db mouse adipocytes; assay: Glucose uptake test using isolated adipocytes from pravastatin-dosed C57BL/ksj-db/db mice; type: in vivo; settings: isolated epididymal adipocytes from C57BL/ksj-db/db mice dosed with pravastatin for 1 week, insulin, 3H-2-deoxyglucose
Method: as §1, §2

3T3-L1 adipocytes = assay: Glucose uptake enhancing action (in vitro), 3H-2-deoxyglucose uptake in 3T3-L1 adipocytes; type: cell-based; settings: 10 μM test compound for 72 hours, insulin added, P<0.001
Method: Preadipocyte cell line 3T3-L1 was purchased from the American Type Culture Collection (ATCC). The 3T3-L1 cells were plated onto a 24-well, collagen-coated plate and cultured to saturation in growth medium (DMEM, 25 mM glucose, 10% FCS, 100 u/ml penicillin, 0.1 mg/ml streptomycin) under conditions of 37° C. and 5% CO2. Five days after cell proliferation had reached a saturated state, the medium was replaced with medium (DMEM, 25 mM glucose, 10% FCS, 100 u/ml penicillin, 0.1 mg/ml streptomycin) to which had been added 1 μM insulin, 0.5 mM 3-isobutyl-1-methylxanthine and 1 μM dexamethazone to initiate adipocyte differentiation. Two days later, the medium was replaced with growth medium containing 1 μM insulin followed by additionally culturing the cells for 2 days. Subsequently, the medium was replaced with fresh growth medium every 3 days, and the 3T3-L1 adipocytes were prepared on day 10 after the start of differentiation. […]
Measurement of glucose uptake was carried out in the manner described below. […] 160 μl of the cell lysate were mixed with 4 ml of Hionic Fluor (Perkin-Elmer) liquid scintillation counter cocktail followed by measurement of the radioactivity in the cell lysate with a liquid scintillation counter (Packard). The determined radioactivity of the ^3H-labeled was used as an indicator of the amount of glucose taken up into the cells.

CC[C@H](C)C(=O)O[C@H]1C[C@H](O)C=C2C=C[C@H](C)[C@H](CC[C@@H](O)C[C@@H](O)CC(=O)O)[C@H]21 [pravastatin, (+)-(3R,5R)-3,5-dihydroxy-7-[(1S,2S,6S,8S,8aR)-6-hydroxy-2-methyl-8-[(S)-2-methylbutyryloxy]-1,2,6,7,8,8a-hexahydro-1-naphthyl]heptanoic acid]
amount of glucose uptake by dose group relative to non-dose group [1]: 1.4 times
blood glucose level in insulin tolerance test (C57BL/ksj-db/db mice [2]): 324 mg/dL
blood glucose level in glucose tolerance test (C57BL/ksj-db/db mice [3]): 342 mg/dL
blood glucose level (KKAy mice): 351 mg/dL
blood glucose level (C57BL/ksj-db/db mice [4]): 438 mg/dL
amount of glucose uptake by dose group relative to non-dose group [5]: 2.0 times
amount of glucose uptake into the cells relative to control group (3T3-L1 adipocytes): 1.9 times
